Molecular target: T1, recombinant autotaxin (Homo sapiens, UniProt Q13822)
T1 construct: made in house; host or cells: Hi5 insect cells (baculovirus)
Experiment: Autotaxin test (enzyme test), Amplex Red fluorescence with LPC substrate
Assay type: biochemical
Conditions: autotaxin inhibition (enzyme test); for remaining activity at 10 µM: 10 μM compound, read-out: % Control at 10 μM
Experimental: Autotaxin Inhibition (Enzyme Test)
Autotaxin Test (Enzyme Test)
The autotaxin activity is measured indirectly using Amplex Red reagent. Amplex Red is measured here as fluorogenic indicator for the H2O2 formed. In detail, autotaxin converts the substrate lysophosphatidylcholine (LPC) into phosphocholine and lysophosphatidylic acid (LPA). After this reaction, the phosphocholine is reacted with alkaline phosphatase to give inorganic phosphate and choline. In the next step, choline is oxidised by choline oxidase to give betaine, with formation of H2O2. H2O2 reacts with Amplex Red reagent in the presence of peroxidase (horseradish peroxidase) in a 1:1 stoichiometry and forms the highly fluorescent resorufin. The fluorescence is measured in a reaction-dependent kinetic mode in order that fluorescent signals from possible other fluorescent substances which are not involved in the reaction can be corrected out.
3 μl of a standard solution or of the test substances (substances with the name A(n)) in individual concentrations dissolved in 20 mM Hepes pH 7.2 with a maximum of 11% of DMSO are pre-incubated together with 20 μl (19 ng) of highly purified recombinant autotaxin in test buffer in a black microtitre plate provided with 384 wells at 22° C. for 30 min. The reaction is then initiated by addition of 10 μl of L-α-lysophosphatidylcholine (LPC), where the final concentration of LPC is 75 μM. The mixture is incubated at 37° C. for 90 min. After the incubation, Amplex Red reagent, peroxidase (horseradish peroxidase) and choline oxidase is added, and the fluorescence is immediately measured at 612 nm with excitation of 485 nm in a “Tecan Ultra multimode” reader. The activity of autotaxin is calculated indirectly via detection of the H2O2 formed.
• Microtitre plate: PS microplate, 384 wells, small volume, black Corning, Cat#3677 • Protein: recombinant autotaxin (Baculovirale Hi5 Expression) • Substrate: L-α-lysophosphatidylcholine (chicken egg)); Avanti Polar Lipids #830071 P • Standard: C14 LPA, Avanti Polar Lipids, Cat#857120P • Detection reagent: Amplex Red reagent; Invitrogen #A12222; 5 mg dissolved in 1.923 ml of DMSO peroxidase type VI-A (horseradish) from Sigma #P6782; 5 mg dissolved in 7.45 ml of test buffer, choline oxidase; Sigma # C5896; 50 U dissolved in 2.47 ml of test buffer • Detection reagent mix: 1:50 dilution of detection reagent in test buffer • Test buffer: 10 mM Tris HCl, Merck, Cat #1.08219, pH 8, 1 mM; CaCl2×2 H2O, Merck #1.02382

| Compound | remaining activity at 10 µM [%] | IC50 [nM] |
| --- | --- | --- |
| CC(C)(C)[C@H](O)C(=O)N1CCN2C(=O)c3cc(-c4ccc(Cl)cc4F)ccc3NC(=O)C2C1 (stereo partly drawn) [Compound A60, 7-(4-Chloro-2-fluorophenyl)-2-((S)-2-hydroxy-3,3-dimethylbutyryl)-1,3,4,11a-tetrahydro-2H,10H-2,4a,10-triazadibenzo[a,d]cycloheptene-5,11-dione] | -27 | 100 to 1000 |
| CC(C)(C)CC(=O)N1CCN2C(=O)c3cc(-c4ccc(Cl)cc4F)ccc3N(CCN3CCOCC3)C(=O)C2C1 (stereo not drawn) [Compound A143] | 3 | 100 to 1000 |
| CC(C)(C)CC(=O)N1CCN2C(=O)c3cc(-c4ccc(Cl)cc4F)ccc3NC(=O)C2C1 (stereo not drawn) [Compound 10, 7-(4-chloro-2-fluorophenyl)-2-(3,3-dimethylbutyryl)-1,3,4,11a-tetrahydro-2H,10H-2,4a,10-triazadibenzo[a,d]cycloheptene-5,11-dione] | 1 | 100 to 1000 |
| CC(C)(C)CC(=O)N1CCN2C(=O)c3cc(-c4ccc(Cl)cc4F)ccc3N(CC3CCNCC3)C(=O)C2C1 (stereo not drawn) [Compound A147] | 62 | > 1000 |
| CC(C)(C)[C@H](O)C(=O)N1CCN2C(=O)c3cc(-c4ccc(Cl)cc4)ccc3NC(=O)[C@H]2C1 [Compound A56, (R)-7-(4-Chlorophenyl)-2-((S)-2-hydroxy-3,3-di-methyl-1-oxobutyl)-1,3,4,11a-tetrahydro-2H,10H-2,4a,10-triazadibenzo[a,d]cycloheptene-5,11-dione] | – | 100 to 1000 |
| O=C(C(=O)N1CCN2C(=O)c3cc(-c4ccc(Cl)cc4)ccc3NC(=O)C2C1)c1ccccc1 (stereo not drawn) [Compound A35, 7-(4-Chlorophenyl)-2-(2-oxo-2-phenylacetyl)-1,3,4,11a-tetrahydro-2H,10H-2,4a,10-triaza-dibenzo[a,d]cycloheptene-5,11-dione] | 11 | > 1000 |
| CC(C)(C)CC(=O)N1CCN2C(=O)c3cc(-c4ccc(Cl)cc4F)ccc3N(CCO)C(=O)[C@@H]2C1 [Compound A160] | 2 | 100 to 1000 |
| O=C1Nc2ccc(-c3ccc(Cl)cc3F)cc2C(=O)N2CCN(C(=O)CC3CC3)CC12 (stereo not drawn) [Compound A28, 7-(4-Chloro-2-fluorophenyl)-2-(2-cyclopropylacetyl)-1,3,4,11a-tetrahydro-2H,10H-2,4a,10-triaza-dibenzo[a,d]cycloheptene-5,11-dione] | 4 | > 1000 |
| Cn1cc(-c2ccc3c(c2)C(=O)N2CCN(C(=O)CC(C)(C)C)CC2C(=O)N3)cn1 (stereo not drawn) [Compound A108, 2-(3,3-Dimethylbutyryl)-7-(1-methyl-1H-pyrazol-4-yl)-1,3,4,11a-tetrahydro-2H,10H-2,4a,10-triaza-dibenzo[a,d]cycloheptene-5,11-dione] | 90 | – |
| O=C1Nc2ccc(-c3ccc(Cl)cc3)cc2C(=O)N2CCN(C(=O)Cc3ccccc3)CC12 (stereo not drawn) [Compound A32, 7-(4-Chlorophenyl)-2-phenylacetyl-1,3,4,11a-tetrahydro-2H,10H-2,4a,10-triazadibenzo[a,d]-cycloheptene-5,11-dione] | 76 | – |
| CC(C)(C)[C@H](N)C(=O)N1CCN2C(=O)c3cc(-c4ccc(Cl)cc4)ccc3NC(=O)C2C1 (stereo partly drawn) [Compound A137, 2-((S)-2-Amino-3,3-dimethylbutyryl)-7-(4-chloro-phenyl)-1,3,4,11a-tetrahydro-2H,10H-2,4a,10-triazadibenzo[a,d]cycloheptene-5,11-dione] | -18 | > 1000 |
| NCCN1CCC[C@H]1C(=O)N1CCN2C(=O)c3cc(-c4ccc(Cl)cc4F)ccc3NC(=O)[C@H]2C1 [Compound A119, (R)-2-[(S)-1-(2-Aminoethyl)pyrrolidine-2-carbonyl]-7-(4-chloro-2-fluorophenyl)-1,3,4,11a-tetrahydro-2H,10H-2,4a,10-triazadibenzo[a,d]cycloheptene-5,11-dione] | 45 | > 1000 |
| O=C1Nc2ccc(-c3ccc(Cl)cc3F)cc2C(=O)N2CCN(C(=O)Cc3ccccn3)CC12 (stereo not drawn) [Compound A30, 7-(4-Chloro-2-fluorophenyl)-2-(2-pyridin-2-ylacetyl)-1,3,4,11a-tetrahydro-2H,10H-2,4a,10-triaza-dibenzo[a,d]cycloheptene-5,11-dione] | 23 | > 1000 |
| CS(=O)(=O)CC(=O)N1CCN2C(=O)c3cc(-c4ccc(Cl)cc4)ccc3NC(=O)C2C1 (stereo not drawn) [Compound A22, 7-(4-Chlorophenyl)-2-(2-methanesulfonylacetyl)-1,3,4,11a-tetrahydro-2H,10H-2,4a,10-triaza-dibenzo[a,d]cycloheptene-5,11-dione] | 61 | > 1000 |
| CC(C)(C)CC(=O)N1CCN2C(=O)c3cc(-c4cc(C(F)(F)F)ccc4F)ccc3NC(=O)C2C1 (stereo not drawn) [Compound A83, 2-(3,3-Dimethylbutyryl)-7-(2-fluoro-5-trifluoromethyl-phenyl)-1,3,4,11a-tetrahydro-2H,10H-2,4a,10-triazadibenzo[a,d]cycloheptene-5,11-dione] | 81 | – |
| Cc1nc(C(=O)N2CCN3C(=O)c4cc(-c5ccc(Cl)cc5)ccc4NC(=O)C3C2)c(N)s1 (stereo not drawn) [Compound A37, 2-(5-Amino-2-methylthiazole-4-carbonyl)-7-(4-chlorophenyl)-1,3,4,11a-tetrahydro-2H,10H-2,4a,10-triazadibenzo[a,d]cycloheptene-5,11-dione] | 66 | > 1000 |
| CN1CCC(N2CCC[C@H]2C(=O)N2CCN3C(=O)c4cc(-c5ccc(Cl)cc5F)ccc4NC(=O)[C@H]3C2)CC1 [Compound A118, (R)-7-(4-Chloro-2-fluorophenyl)-2-[(S)-1-(1-methylpiperidin-4-yl)pyrrolidine-2-carbonyl]-1,3,4,11a-tetrahydro-2H,10H-2,4a,10-triaza-dibenzo[a,d]cycloheptene-5,11-dione] | 8 | 100 to 1000 |
| O=C1Nc2ccc(-c3ccc(Cl)cc3)cc2C(=O)N2CCN(C(=O)C(O)c3cccc(Cl)c3)CC12 (stereo not drawn) [Compound A41, 7-(4-Chlorophenyl)-2-[2-(3-chlorophenyl)-2-hydroxyacetyl]-1,3,4,11a-tetrahydro-2H,10H-2,4a,10-triazadibenzo[a,d]cycloheptene-5,11-dione] | 68 | > 1000 |
| COC[C@H](N)C(=O)N1CCN2C(=O)c3cc(-c4ccc(Cl)cc4F)ccc3NC(=O)[C@H]2C1 [Compound A124, (R)-2-((S)-2-Amino-3-methoxypropionyl)-7-(4-chloro-2-fluorophenyl)-1,3,4,11a-tetrahydro-2H,10H-2,4a,10-triazadibenzo[a,d]cycloheptene-5,11-dione] | 39 | > 1000 |
| CN(C)CCN1CCC[C@H]1C(=O)N1CCN2C(=O)c3cc(-c4ccc(Cl)cc4F)ccc3NC(=O)C2C1 (stereo partly drawn) [Compound A115, 7-(4-Chloro-2-fluorophenyl)-2-[(S)-1-(2-dimethyl-aminoethyl)pyrrolidine-2-carbonyl]-1,3,4,11a-tetrahydro-2H,10H-2,4a,10-triaza-dibenzo[a,d]cycloheptene-5,11-dione] | 80 | > 1000 |

— patent US20120115852A1, “HETEROCYCLIC COMPOUNDS AS AUTOTAXIN INHIBITORS” (Merck Patent Gesellschaft Mit Beschrankter Haftung, priority 2009, published 2012)
